Measured values as given in patent US20260265246A1 (ICAHN SCHOOL OF MEDICINE AT MOUNT SINAI, priority 2021, published 2026).
pEC50, pKi: −log10 of the molar value. Read-outs that look alike come from different tables or passages of the source.

What was measured:
5HT2A receptor [1] = biological target: T1, 5HT2A receptor (Homo sapiens, UniProt P28223); assay: biochemical; assay type: binding; set-up: expressed in transfected cells; crude membranes; conditions: for Ki: 5HT2A Ki (nM)
5HT2A receptor [2] = biological target: T1, 5HT2A receptor; assay: cell-based; set-up: expressed in transfected cells; host or cells: HEK293T cells, transient co-transfection; conditions: BRET2 Gαq dissociation; for Emax: HEK-293T
[3] = secondary radioligand binding, Ki from IC50 by Cheng-Prusoff
[4] = 5HT2A Gq EC50 (nM), HEK293T cells
[5] = HEK293T cells, normalized to 5-HT, read-out: 5HT2A Gq Emax (%)
[6] = secondary binding assay, Cheng-Prusoff
[7] = HEK293T, normalized to 5-HT, read-out: 5HTA Gq Emax (%)

T1 sequence (P28223 whole entry): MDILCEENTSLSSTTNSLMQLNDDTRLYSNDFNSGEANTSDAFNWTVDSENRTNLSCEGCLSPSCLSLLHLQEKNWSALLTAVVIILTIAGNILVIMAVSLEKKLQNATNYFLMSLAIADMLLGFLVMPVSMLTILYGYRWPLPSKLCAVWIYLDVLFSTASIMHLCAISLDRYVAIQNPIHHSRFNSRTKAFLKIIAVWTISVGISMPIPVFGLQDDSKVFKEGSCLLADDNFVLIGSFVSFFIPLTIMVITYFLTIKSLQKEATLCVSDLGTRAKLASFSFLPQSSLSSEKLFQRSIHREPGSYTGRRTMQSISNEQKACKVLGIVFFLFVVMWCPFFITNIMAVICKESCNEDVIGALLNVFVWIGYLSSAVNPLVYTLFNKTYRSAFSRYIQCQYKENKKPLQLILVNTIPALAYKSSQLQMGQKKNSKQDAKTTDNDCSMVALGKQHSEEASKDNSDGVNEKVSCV

Compound | Ki (5HT2A receptor [1]; [3]) [nM] | EC50 (5HT2A receptor [2]; [4]) [nM] | Emax (5HT2A receptor [2]; [5]) [%] | Ki (5HT2A receptor [1]; [6]) [nM] | other results
Clc1cccc2c(C34CNCC3C4)c[nH]c12 (single isomer, unassigned) [Example 278, 3-(3-azabicyclo[3.1.0]hexan-1-yl)-7-chloro-1H-indole] |  |  |  |  | pKi (5HT2A receptor [1]; secondary binding assay, Cheng-Prusoff, read-out: 5HT2A Ki): 7.48; 5HTA Gq Emax (%) (5HT2A receptor [2]; HEK293T, normalized to 5-HT): 58.2%; pEC50 (5HT2A receptor [2]; HEK293T, read-out: 5HTA Gq EC50): 8.03
C1=C(c2c[nH]c3ncc(-c4ccccc4)cc23)CNCC1 [Example 4, 5-phenyl-3-(1,2,5,6-tetrahydropyridin-3-yl)-1H-pyrrolo[2,3-b]pyridine] | 613 | 294 | 67 |  | 
COc1ccnc2[nH]cc(C3=CCCNC3)c12 [Example 10, 4-methoxy-3-(1,2,5,6-tetrahydropyridin-3-yl)-1H-pyrrolo[2,3-b]pyridine] | 312 | 125 | 66.5 |  | 
CCc1ccc2[nH]cc(C3=CCCNC3)c2c1 [Example 25, 5-ethyl-3-(1,2,5,6-tetrahydropyridin-3-yl)-1H-indole] | 941 | 592 | 73.3 |  | 
CCc1ccc2[nH]cc(C3=CCCN(C)C3)c2c1 [Example 26, 5-ethyl-3-(1-methyl-1,2,5,6-tetrahydropyridin-3-yl)-1H-indole] | 166 | 177 | 64.2 |  | 
Cn1cc(C2=CCCNC2)c2cccnc21 [Example 47, 1-methyl-3-(1,2,5,6-tetrahydropyridin-3-yl)-1H-pyrrolo[2,3-b]pyridine] | 796 | 379 | 48.7 |  | 
COc1cccc2c(C3=CCCN(C)C3)c[nH]c12 [Example 53, 7-methoxy-3-(1-methyl-1,2,5,6-tetrahydropyridin-3-yl)-1H-indole] | 374 | 166 | 77.8 |  | 
CN1CCC=C(c2c[nH]c3c(O)cccc23)C1 [Example 60, 3-(1-methyl-1,2,5,6-tetrahydropyridin-3-yl)-1H-indol-7-ol] | 795 | 440 | 64.3 |  | 
Cc1[nH]c2ccccc2c1C1=CCCNC1 [Example 61, 2-methyl-3-(1,2,5,6-tetrahydropyridin-3-yl)-1H-indole] | 805 | 363 | 67.4 |  | 
Cc1[nH]c2ccccc2c1C1=CCCN(C)C1 [Example 63, 2-methyl-3-(1-methyl-1,2,5,6-tetrahydropyridin-3-yl)-1H-indole] | 823 | 162 | 79 |  | 
CCc1[nH]c2ccccc2c1C1=CCCN(C)C1 [Example 65, 2-ethyl-3-(1-methyl-1,2,5,6-tetrahydropyridin-3-yl)-1H-indole] | 221 | 124 | 51.2 |  | 
CCc1cccc2c(C3=CCCNC3)c(Cl)[nH]c12 [Example 66, 2-chloro-7-ethyl-3-(1,2,5,6-tetrahydropyridin-3-yl)-1H-indole] | 115 | 213 | 79 |  | 
COc1cccc2c(C3=CCCN(Cc4ccccc4)C3)c[nH]c12 [Example 71, 3-(1-benzyl-1,2,5,6-tetrahydropyridin-3-yl)-7-methoxy-1H-indole] | 448 | 530 | 65.2 |  | 
CN1CCC=C(c2n[nH]c3cc(Cl)ccc23)C1 [Example 94, 6-chloro-3-(1-methyl-1,2,5,6-tetrahydropyridin-3-yl)-1H-indazole] | 1300 | 309 | 72.1 |  | 
CN1CCC=C(c2n[nH]c3ccc(C#N)cc23)C1 [Example 103, 3-(1-methyl-1,2,5,6-tetrahydropyridin-3-yl)-1H-indazole-5-carbonitrile] | 1390 | 612 | 64.9 |  | 
CCCN1CCC=C(c2n[nH]c3c(Cl)cccc23)C1 [Example 123, 7-chloro-3-(1-propyl-1,2,5,6-tetrahydropyridin-3-yl)-1H-indazole] | 140 | 142 | 66.9 |  | 
CN1CCC=C(c2c[nH]c3cnccc23)C1 [Example 135, 3-(1-methyl-1,2,5,6-tetrahydropyridin-3-yl)-1H-pyrrolo[2,3-c]pyridine] |  |  |  | 3540 | EC50 (5HT2A receptor [2]; 5HTA Gq EC50 (nM), HEK293T): 1610 nM; Emax (5HT2A receptor [2]; [7]): 77.8%
CN1CCC=C(c2c[nH]c3ccncc23)C1 [Example 136, 3-(1-methyl-1,2,5,6-tetrahydropyridin-3-yl)-1H-pyrrolo[3,2-c]pyridine] |  |  |  | 1810 | EC50 (5HT2A receptor [2]; 5HTA Gq EC50 (nM), HEK293T): 529 nM; Emax (5HT2A receptor [2]; [7]): 92.5%
Cc1ccc2[nH]cc(C3=CCCNC3)c2n1 [Example 139, 5-methyl-3-(1,2,5,6-tetrahydropyridin-3-yl)-1H-pyrrolo[3,2-b]pyridine] |  |  |  | 4180 | EC50 (5HT2A receptor [2]; 5HTA Gq EC50 (nM), HEK293T): 785 nM; Emax (5HT2A receptor [2]; [7]): 112%
Cc1cccc2c(C34CNCCC3C4)n[nH]c12 (centres unmarked) [Example 193, 3-(3-azabicyclo[4.1.0]heptan-1-yl)-7-methyl-1H-indazole] |  |  |  | > 10000 | 
CN1CCC2CC2(c2n[nH]c3c(Cl)cccc23)C1 (centres unmarked) [Example 197, 7-chloro-3-(3-methyl-3-azabicyclo[4.1.0]heptan-1-yl)-1H-indazole] |  |  |  | 1200 | 
Cc1cccc2c(C34CNCC3C4(F)F)n[nH]c12 (centres unmarked) [Example 200] |  |  |  | > 10000 | 
Fc1cccc2c(C34CNCC3C4(F)F)n[nH]c12 (centres unmarked) [Example 201, 3-(6,6-difluoro-3-azabicyclo[3.1.0]hexan-1-yl)-7-fluoro-1H-indazole] |  |  |  | 4310 | 
N#Cc1cccc2c(C34CNCC3C4(F)F)n[nH]c12 (centres unmarked) [Example 202, 3-(6,6-difluoro-3-azabicyclo[3.1.0]hexan-1-yl)-1H-indazole-7-carbonitrile] |  |  |  | > 10000 | 

Compound | Ki (5HT2A receptor [1]; [3]) [nM] | EC50 (5HT2A receptor [2]; [4]) [nM] | Emax (5HT2A receptor [2]; [5]) [%] | Ki (5HT2A receptor [1]; [6]) [nM] | other results
Cc1cccc2c(C3=CCNCCC3)n[nH]c12 [Example 204, 7-methyl-3-(2,5,6,7-tetrahydro-1H-azepin-4-yl)-1H-indazole] |  |  |  | 158 | 
Cc1cccc2c(C3=CCN(C)CCC3)n[nH]c12 [Example 205, 7-methyl-3-(1-methyl-2,5,6,7-tetrahydro-1H-azepin-4-yl)-1H-indazole] |  |  |  | 217 | 
Clc1cccc2c(-c3cccnc3)n[nH]c12 [Example 214, 7-chloro-3-(pyridin-3-yl)-1H-indazole] |  |  |  | > 10000 | 
c1cc(-c2cncnc2)c2[nH]nc(-c3cncnc3)c2c1 [Example 215, 3,7-di(pyrimidin-5-yl)-1H-indazole] |  |  |  | 3280 | 
Clc1cccc2c(-c3cnc[nH]3)n[nH]c12 [Example 217, 7-chloro-3-(1H-imidazol-5-yl)-1H-indazole] |  |  |  | > 10000 | 
Clc1cccc2c(-c3cn[nH]c3)n[nH]c12 [Example 218, 7-chloro-3-(1H-pyrazol-4-yl)-1H-indazole] |  |  |  | 1720 | 
Clc1cccc2c(C3=CCOCC3)n[nH]c12 [Example 220, 7-chloro-3-(3,6-dihydro-2H-pyran-4-yl)-1H-indazole] |  |  |  | > 10000 | 
CN1CCC(c2n[nH]c3c(Cl)cccc23)C1 (centres unmarked) [Example 222, 7-chloro-3-(1-methylpyrrolidin-3-yl)-1H-indazole] |  |  |  | 6980 | 
CN1CC2C=C(c3n[nH]c4c(Cl)cccc34)C1CC2 (centres unmarked) [Example 224, 6-(7-chloro-1H-indazol-3-yl)-2-methyl-2-azabicyclo[2.2.2]oct-5-ene] |  |  |  | 8880 | 
N#Cc1cccc2c(N3CCNCC3)n[nH]c12 [Example 231, 3-(piperazin-1-yl)-1H-indazole-7-carbonitrile] |  |  |  | 3010 | 
CN1CCN(c2n[nH]c3c(C#N)cccc23)CC1 [Example 233, 3-(4-methylpiperazin-1-yl)-1H-indazole-7-carbonitrile] |  |  |  | 4830 | 
Cc1cccc2c(N3CCN(C)CC3)n[nH]c12 [Example 234, 7-methyl-3-(4-methylpiperazin-1-yl)-1H-indazole] |  |  |  | 259 | 
CCCc1cccc2c(C3CCCN(C)C3)c[nH]c12 (centres unmarked) [Example 235, 3-(1-methylpiperidin-3-yl)-7-propyl-1H-indole] |  |  |  | 5550 | 
CCCc1cccc2c(C3=CCCNC3)n[nH]c12 [Example 236] |  |  |  | 294 | 
CN1CC=C(c2n[nH]c3c(Cl)cccc23)CC1 [Example 239, 7-chloro-3-(1-methyl-1,2,3,6-tetrahydropyridin-4-yl)-1H-indazole] |  |  |  | 603 | 
CN1CCC(c2n[nH]c3c(Cl)cccc23)CC1 [Example 240, 7-chloro-3-(1-methylpiperidin-4-yl)-1H-indazole] |  |  |  | 378 | 
CCCN1CC=C(c2n[nH]c3c(Cl)cccc23)CC1 [Example 242, 7-chloro-3-(1-propyl-1,2,3,6-tetrahydropyridin-4-yl)-1H-indazole] |  |  |  | 330 | 
CCCN1CCOC(c2c[nH]c3c(Cl)cccc23)C1 (centres unmarked) [Example 247, 2-(7-chloro-1H-indol-3-yl)-4-propylmorpholine] |  |  |  | 2560 | 
CC(C)N1CCOC(c2c[nH]c3c(Cl)cccc23)C1 (centres unmarked) [Example 248, 2-(7-chloro-1H-indol-3-yl)-4-isopropylmorpholine] |  |  |  | 5890 | 
Clc1cccc2c(C3CN4CCC3CC4)c[nH]c12 (centres unmarked) [Example 251, 3-(7-chloro-1H-indol-3-yl)quinuclidine] |  |  |  | 1100 | 
Cc1cccc2c(C3=CN4CCC3CC4)c[nH]c12 [Example 252, 3-(7-methyl-1H-indol-3-yl)-1-azabicyclo[2.2.2]oct-2-ene] |  |  |  | 6020 | 
Cc1cccc2c(C3CN4CCC3CC4)c[nH]c12 (centres unmarked) [Example 253, 3-(7-methyl-1H-indol-3-yl)quinuclidine] |  |  |  | > 10000 | 
Cc1cc(Br)cc2c(C3CNC3)c[nH]c12 [Example 265, 3-(azetidin-3-yl)-5-bromo-7-methyl-1H-indole] |  |  |  | 217 | 
Clc1cc(Cl)c2[nH]cc(C3CNC3)c2c1 [Example 266, 3-(azetidin-3-yl)-5,7-dichloro-1H-indole] |  |  |  | 244 | 
